Source: ChEMBL document CHEMBL3885861, “Open TG-GATES”

Organism: Rattus norvegicus
Test: Open TG-GATES - Regimen: Daily Repeat
Format: toxicity, organism-based, Sprague-Dawley
Parameters: regimen Daily Repeat, gender Male, age 6 weeks
Details: in vivo, po, 0 mg/kg, route gavage, dose level Control; for APTT / Bas / Eos / Fbg / Hb / Ht / Lym / MCH / MCHC / MCV / Mono / Neu / PT / Plat / RBC / Ret / WBC: tissue Blood
[1] = 72 h, tissue Kidney, time 3 day
[2] = 72 h, tissue Plasma, time 3 day

Q: What does the source list for `O=C1CN(/N=C/c2ccc([N+](=O)[O-])o2)C(=O)N1` [NITROFURANTOIN]?
A: TERMINAL_BW (72 h, time 3 day): 244.1 g; APTT (72 h, time 3 day): 19.2 s; Bas (72 h, time 3 day): 0%; Eos (72 h, time 3 day): 1%; Fbg (72 h, time 3 day): 219 mg/dL; Hb (72 h, time 3 day): 13.7 g/dL; Ht (72 h, time 3 day): 39.1%; Lym (72 h, time 3 day): 80.6%; MCH (72 h, time 3 day): 22 pg; MCHC (72 h, time 3 day): 35.1%; MCV (72 h, time 3 day): 62.8 fL; Mono (72 h, time 3 day): 3%; Neu (72 h, time 3 day): 13.8%; PT (72 h, time 3 day): 12.3 s; Plat (72 h, time 3 day): 134.3 x10_4/uL; RBC (72 h, time 3 day): 622.8 x10_4/ul; Ret (72 h, time 3 day): 6.3%; WBC (72 h, time 3 day): 116.2 x10_2/uL; KIDNEY_L [1]: 1 g; KIDNEY_R [1]: 1.1 g; KIDNEY_TOTAL [1]: 2.1 g; LIVER (72 h, tissue Liver, time 3 day): 12.1 g; A/G [2]: 1.5; ALP [2]: 885 IU/L; ALT [2]: 35.6 IU/L; AST [2]: 68.6 IU/L; BUN [2]: 16.2 mg/dL; CRE [2]: 0.4 mg/dL; Ca [2]: 10.8 mg/dL; Cl [2]: 101 meq/L; DBIL [2]: 0.1 mg/dL; GLC [2]: 233.2 mg/dL; IP [2]: 7.2 mg/dL; K [2]: 3.7 meq/L; LDH [2]: 200.8 IU/L; Na [2]: 140 meq/L; PL [2]: 166.6 mg/dL; RALB [2]: 3.4 g/dL; TBIL [2]: 0.2 mg/dL; TC [2]: 77.6 mg/dL; TG [2]: 139.8 mg/dL; TP [2]: 5.6 g/dL; gamma-GTP [2]: 1 IU/L; TERMINAL_BW ([…], time 7 day): 274 g; TERMINAL_BW ([…], time 14 day): 331.5 g; TERMINAL_BW ([…], time 28 day): 422.1 g; APTT ([…], time 7 day): 19.9 s; Bas ([…], time 7 day): 0%; Eos ([…], time 7 day): 0.8%; Fbg ([…], time 7 day): 227.8 mg/dL; Hb ([…], time 7 day): 14.1 g/dL; Ht ([…], time 7 day): 40.2%; Lym ([…], time 7 day): 80.6%; MCH ([…], time 7 day): 21.5 pg; MCHC ([…], time 7 day): 35.2%; MCV ([…], time 7 day): 61.2 fL; Mono ([…], time 7 day): 2.6%; Neu ([…], time 7 day): 14.6%; PT ([…], time 7 day): 12.5 s; Plat ([…], time 7 day): 135 x10_4/uL; RBC ([…], time 7 day): 657.2 x10_4/ul; Ret ([…], time 7 day): 5.4%; WBC ([…], time 7 day): 123.7 x10_2/uL; APTT ([…], time 14 day): 20.1 s; Bas ([…], time 14 day): 0%; Eos ([…], time 14 day): 0.6%; Fbg ([…], time 14 day): 227.4 mg/dL; Hb ([…], time 14 day): 14.6 g/dL; Ht ([…], time 14 day): 41.5%; Lym ([…], time 14 day): 77.4%; MCH ([…], time 14 day): 20.3 pg; MCHC ([…], time 14 day): 35.1%; MCV ([…], time 14 day): 57.7 fL; Mono ([…], time 14 day): 1.8%; Neu ([…], time 14 day): 18.8%; PT ([…], time 14 day): 12.3 s; Plat ([…], time 14 day): 117.4 x10_4/uL; RBC ([…], time 14 day): 718.6 x10_4/ul; Ret ([…], time 14 day): 4.4%; WBC ([…], time 14 day): 127.2 x10_2/uL; APTT ([…], time 28 day): 21.4 s; Bas ([…], time 28 day): 0%; Eos ([…], time 28 day): 1%; Fbg ([…], time 28 day): 227 mg/dL; Hb ([…], time 28 day): 15 g/dL; Ht ([…], time 28 day): 42.7%
